Assay results as given in doi:10.1101/679977v1 (bioRxiv, 2019).
Square brackets hold non-standard residues; d marks the D form. Peptide text beside a SMILES is read from it.

Tests used:
Type in all cases: cell-based
E. coli = assay: Geometric mean of MICs, selectivity and targeting indices; conditions: for TI Beneficial strains (targeting index): GM(E. coli)/GM(beneficial strains); for TI Beneficial strains (targeting index) / TI Pathogenic strains (targeting index): smaller = greater specificity; for TI Pathogenic strains (targeting index): GM(E. coli)/GM(other pathogenic strains); for SI E. coli (selectivity index): MHC/GM (E. coli), MHC >128 counted as 256 μM, larger = greater cell selectivity; for TI All (TIall, targeting index): all strains, smaller = greater specificity for E. coli; for GM E. coli: geometric mean of MICs against the 6 E. coli strains, >128 counted as 256 μM
Beneficial strains = assay: Geometric mean of MICs; conditions: geometric mean of MICs against beneficial strains; >128 counted as 256 μM
E. coli ATCC25922 = assay: Salt, serum, acid and alkaline sensitivity; conditions: for MIC, Control: absence of physiological salts, serum, acid and alkaline; for MIC, FeCl3: in presence of 4μM FeCl3 (final); for MIC, MgCl2: in presence of 1 mM MgCl2; for MIC, KCl: in presence of 4.5 mM KCl (final); for MIC, NaCl: in presence of 150 mM NaCl (final); for MIC, PH=2: peptide incubated at pH=2 for 4 h prior to MIC determination; for MIC, PH=4: peptide incubated at pH=4 for 4 h prior to MIC determination; for MIC, PH=10: peptide incubated at pH=10 for 4 h prior to MIC determination; for MIC, PH=12: peptide incubated at pH=12 for 4 h prior to MIC determination

| Compound | TI Beneficial strains (targeting index) (E. coli) | TI Pathogenic strains (targeting index) (E. coli) | SI E. coli (selectivity index) (E. coli) | TI All (TIall, targeting index) (E. coli) | GM E. coli (E. coli) | GM Beneficial strains (Beneficial strains) | MIC, Control (E. coli ATCC25922) | MIC, FeCl3 (E. coli ATCC25922) | MIC, MgCl2 (E. coli ATCC25922) | MIC, KCl (E. coli ATCC25922) | MIC, NaCl (E. coli ATCC25922) | MIC, PH=2 (E. coli ATCC25922) | MIC, PH=4 (E. coli ATCC25922) | MIC, PH=10 (E. coli ATCC25922) | MIC, PH=12 (E. coli ATCC25922) |
| --- | --- | --- | --- | --- | --- | --- | --- | --- | --- | --- | --- | --- | --- | --- | --- |
| CC[C@H](C)[C@H](NC(=O)CN)C(=O)NCC(=O)N[C@@H](C)C(=O)N[C@H](C(=O)N[C@@H](CC(C)C)C(=O)N[C@@H](CCCCN)C(=O)N[C@H](C(=O)N[C@@H](CC(C)C)C(=O)N[C@H](C(=O)N[C@H](C(=O)NCC(=O)N[C@@H](CC(C)C)C(=O)N1CCC[C@H]1C(=O)N[C@@H](C)C(=O)N[C@@H](CC(C)C)C(=O)N[C@H](C(=O)N[C@@H](CO)C(=O)N[C@@H](Cc1c[nH]c2ccccc12)C(=O)N[C@H](C(=O)N[C@@H](CCCCN)C(=O)N[C@@H](CCCNC(=N)N)C(=O)N[C@@H](CCCCN)C(=O)N[C@@H](CCCNC(=N)N)C(=O)N[C@@H](CCC(N)=O)C(=O)N[C@@H](CCC(N)=O)C(N)=O)[C@@H](C)CC)[C@@H](C)CC)[C@@H](C)O)[C@@H](C)O)C(C)C)C(C)C [MLT, Melittin, reference compound] | 1.122 | 0.630 | 0.794 | 0.876 | 2.520 µM | 2.245 µM |  |  |  |  |  |  |  |  |  |
| CC[C@H](C)[C@H](NC(=O)CNC(=O)[C@H]1CCCN1C(=O)[C@H](CCCCN)NC(=O)[C@H](Cc1c[nH]c2ccccc12)NC(=O)[C@@H](NC(=O)[C@@H](N)CCCCN)[C@@H](C)CC)C(=O)N[C@@H](CCCCN)C(=O)N[C@@H](CCCCN)C(=O)N[C@@H](Cc1c[nH]c2ccccc12)C(=O)O [Peptide 1] (H-KIWK[dP]GIKKW-OH; N-terminus and C-terminus assumed) | 1.000 | 1.000 | 1.000 | 1.000 | 256.000 µM | 256.000 µM | >64 µM | >64 µM | >64 µM | >64 µM | >64 µM | >64 µM | >64 µM | >64 µM | >64 µM |
| CC[C@H](C)[C@H](NC(=O)CNC(=O)[C@H]1CCCN1C(=O)[C@H](CCCCN)NC(=O)[C@H](Cc1c[nH]c2ccccc12)NC(=O)[C@@H](NC(=O)[C@H](CCCCN)NC(=O)[C@H](CCCCN)NC(=O)[C@@H](N)Cc1c[nH]c2ccccc12)[C@@H](C)CC)C(=O)N[C@@H](CCCCN)C(=O)N[C@@H](CCCCN)C(=O)N[C@@H](Cc1c[nH]c2ccccc12)C(=O)N[C@H](C(=O)N[C@@H](CCCCN)C(=O)O)[C@@H](C)CC [Peptide 2] (H-WKKIWK[dP]GIKKWIK-OH; N-terminus and C-terminus assumed) | 0.063 | 0.070 | 16.000 | 0.067 | 16.000 µM | 256.000 µM | 16 µM | 16 µM | 32 µM | 16 µM | >64 µM | 32 µM | 16 µM | 16 µM | 32 µM |
| CC[C@H](C)[C@H](NC(=O)CNC(=O)[C@H]1CCCN1C(=O)[C@H](CCCCN)NC(=O)[C@H](Cc1c[nH]c2ccccc12)NC(=O)[C@@H](NC(=O)[C@H](CCCCN)NC(=O)[C@H](CCCCN)NC(=O)[C@H](Cc1c[nH]c2ccccc12)NC(=O)[C@@H](NC(=O)[C@@H](N)CCCCN)[C@@H](C)CC)[C@@H](C)CC)C(=O)N[C@@H](CCCCN)C(=O)N[C@@H](CCCCN)C(=O)N[C@@H](Cc1c[nH]c2ccccc12)C(=O)N[C@H](C(=O)N[C@@H](CCCCN)C(=O)N[C@@H](CCCCN)C(=O)N[C@@H](Cc1c[nH]c2ccccc12)C(=O)O)[C@@H](C)CC [Peptide 3] (H-KIWKKIWK[dP]GIKKWIKKW-OH; N-terminus and C-terminus assumed) | 0.011 | 0.079 | 90.523 |  | 2.828 µM | 256.000 µM | 4 µM | 4 µM | 8 µM | 4 µM | 16 µM | 4 µM | 4 µM | 4 µM | 4 µM |
| CC[C@H](C)[C@H](NC(=O)CNC(=O)[C@H]1CCCN1C(=O)[C@H](CCCCN)NC(=O)[C@H](Cc1c[nH]c2ccccc12)NC(=O)[C@@H](NC(=O)[C@H](CCCCN)NC(=O)[C@H](CCCCN)NC(=O)[C@@H](N)Cc1c[nH]c2ccccc12)[C@@H](C)CC)C(=O)N[C@@H](CCCCN)C(=O)N[C@@H](CCCCN)C(=O)N[C@@H](Cc1c[nH]c2ccccc12)C(=O)N[C@H](C(=O)N[C@@H](CCCCN)C(=O)NCC(=O)NCC(=O)NCC(=O)N[C@@H](CCCCN)C(=O)O)[C@@H](C)CC [Peptide 5] (H-WKKIWK[dP]GIKKWIKGGGK-OH; N-terminus and C-terminus assumed) | 0.044 | 0.050 | 22.627 | 0.047 | 11.314 µM | 256.000 µM | 8 µM | 8 µM | 32 µM | 8 µM | >64 µM | 32 µM | 32 µM | 16 µM | 16 µM |
| CC[C@H](C)[C@H](NC(=O)CNC(=O)[C@H]1CCCN1C(=O)[C@H](CCCCN)NC(=O)[C@H](Cc1c[nH]c2ccccc12)NC(=O)[C@@H](NC(=O)[C@H](CCCCN)NC(=O)[C@H](CCCCN)NC(=O)[C@@H](N)Cc1c[nH]c2ccccc12)[C@@H](C)CC)C(=O)N[C@@H](CCCCN)C(=O)N[C@@H](CCCCN)C(=O)N[C@@H](Cc1c[nH]c2ccccc12)C(=O)N[C@H](C(=O)N[C@@H](CCCCN)C(=O)NCC(=O)NCC(=O)NCC(=O)N[C@@H](CCCCN)C(=O)N[C@@H](CCCCN)C(=O)O)[C@@H](C)CC [Peptide 6] (H-WKKIWK[dP]GIKKWIKGGGKK-OH; N-terminus and C-terminus assumed) | 0.050 | 0.056 | 20.159 | 0.053 | 12.699 µM | 256.000 µM | 8 µM | 8 µM | 32 µM | 8 µM | >64 µM | 32 µM | 16 µM | 16 µM | 16 µM |
